Laboratory results published in patent US12215140B2, “Method of stabilizing protein contained in specimen and solution for stabilizing protein contained in specimen” (EIKEN KAGAKU KABUSHIKI KAISHA, priority 2018, dated 2025).

Test system: hemoglobin-haptoglobin complex
Test: Stability of hemoglobin (as hemoglobin-haptoglobin complex) in samples preserved at 37° C. in preservation solution containing 1 unit/L haptoglobin, Hb measured by latex agglutination method (Examples 1 to 7)
Set-up: species or system human
Conditions: for Hb concentration / Recovery ratio with respect to Hb concentration after 0 days / Recovery ratio with respect to Hb after 0 days: 37° C.; for recovery ratio of hemoglobin in the sample: Feces 1, Feces 2, Feces 3
How it was run: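 Hemoglobin (~300 µg/L) in 0.5% fecal suspension, or without feces, held at 37 °C for 0–21 days in 40 mmol/L HEPES pH 6.8, 0.1% BSA, 0.1% NaN3, 1 unit/L haptoglobin, with 0–100 mmol/L phenylboronic acid ± sugars. Hb quantified by latex agglutination with anti-human Hb rabbit polyclonal; recovery (%) relative to day 0.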

[1] = Feces 1, sugar 50 mmol/L + phenylboronic acid 15 mmol/L, 0 days
[2] = Feces 1, sugar 50 mmol/L + phenylboronic acid 15 mmol/L, 7 days
[3] = Feces 1, sugar 50 mmol/L + phenylboronic acid 15 mmol/L, 14 days
[4] = Feces 1, sugar 100 mmol/L + phenylboronic acid 15 mmol/L, 0 days
[5] = Feces 1, sugar 100 mmol/L + phenylboronic acid 15 mmol/L, 0 days (Table 7)
[6] = Feces 1, sugar 100 mmol/L + phenylboronic acid 15 mmol/L, 7 days
[7] = Feces 1, sugar 100 mmol/L + phenylboronic acid 15 mmol/L, 7 days (Table 7)
[8] = Feces 1, sugar 100 mmol/L + phenylboronic acid 15 mmol/L, 14 days
[9] = Feces 1, sugar 100 mmol/L + phenylboronic acid 15 mmol/L, 14 days (Table 7)
[10] = Feces 1, sugar 100 mmol/L + phenylboronic acid 50 mmol/L, 0 days
[11] = Feces 1, sugar 100 mmol/L + phenylboronic acid 50 mmol/L, 7 days
[12] = Feces 1, sugar 100 mmol/L + phenylboronic acid 50 mmol/L, 14 days
[13] = Feces 1, sugar 100 mmol/L, no phenylboronic acid, 0 days
[14] = Feces 1, sugar 100 mmol/L, no phenylboronic acid, 7 days
[15] = Feces 1, sugar 100 mmol/L, no phenylboronic acid, 14 days
[16] = Feces 2, sugar 50 mmol/L + phenylboronic acid 15 mmol/L, 0 days
[17] = Feces 2, sugar 50 mmol/L + phenylboronic acid 15 mmol/L, 7 days
[18] = Feces 2, sugar 50 mmol/L + phenylboronic acid 15 mmol/L, 14 days
[19] = Feces 2, sugar 100 mmol/L + phenylboronic acid 15 mmol/L, 0 days
[20] = Feces 2, sugar 100 mmol/L + phenylboronic acid 15 mmol/L, 0 days (Table 7)
[21] = Feces 2, sugar 100 mmol/L + phenylboronic acid 15 mmol/L, 7 days
[22] = Feces 2, sugar 100 mmol/L + phenylboronic acid 15 mmol/L, 7 days (Table 7)
[23] = Feces 2, sugar 100 mmol/L + phenylboronic acid 15 mmol/L, 14 days
[24] = Feces 2, sugar 100 mmol/L + phenylboronic acid 15 mmol/L, 14 days (Table 7)
[25] = Feces 2, sugar 100 mmol/L + phenylboronic acid 50 mmol/L, 0 days
[26] = Feces 2, sugar 100 mmol/L + phenylboronic acid 50 mmol/L, 7 days
[27] = Feces 2, sugar 100 mmol/L + phenylboronic acid 50 mmol/L, 14 days
[28] = Feces 2, sugar 100 mmol/L, no phenylboronic acid, 0 days
[29] = Feces 2, sugar 100 mmol/L, no phenylboronic acid, 7 days
[30] = Feces 2, sugar 100 mmol/L, no phenylboronic acid, 14 days
[31] = Feces 3, sugar 50 mmol/L + phenylboronic acid 15 mmol/L, 0 days
[32] = Feces 3, sugar 50 mmol/L + phenylboronic acid 15 mmol/L, 7 days
[33] = Feces 3, sugar 50 mmol/L + phenylboronic acid 15 mmol/L, 14 days
[34] = Feces 3, sugar 100 mmol/L + phenylboronic acid 15 mmol/L, 0 days
[35] = Feces 3, sugar 100 mmol/L + phenylboronic acid 15 mmol/L, 0 days (Table 7)
[36] = Feces 3, sugar 100 mmol/L + phenylboronic acid 15 mmol/L, 7 days
[37] = Feces 3, sugar 100 mmol/L + phenylboronic acid 15 mmol/L, 7 days (Table 7)
[38] = Feces 3, sugar 100 mmol/L + phenylboronic acid 15 mmol/L, 14 days
[39] = Feces 3, sugar 100 mmol/L + phenylboronic acid 15 mmol/L, 14 days (Table 7)
[40] = Feces 3, sugar 100 mmol/L + phenylboronic acid 50 mmol/L, 0 days
[41] = Feces 3, sugar 100 mmol/L + phenylboronic acid 50 mmol/L, 7 days
[42] = Feces 3, sugar 100 mmol/L + phenylboronic acid 50 mmol/L, 14 days
[43] = Feces 3, sugar 100 mmol/L, no phenylboronic acid, 0 days
[44] = Feces 3, sugar 100 mmol/L, no phenylboronic acid, 7 days
[45] = Feces 3, sugar 100 mmol/L, no phenylboronic acid, 14 days
[46] = No feces, sugar 50 mmol/L + phenylboronic acid 15 mmol/L, 0 days
[47] = No feces, sugar 50 mmol/L + phenylboronic acid 15 mmol/L, 7 days
[48] = No feces, sugar 50 mmol/L + phenylboronic acid 15 mmol/L, 14 days
[49] = No feces, sugar 100 mmol/L + phenylboronic acid 15 mmol/L, 0 days
[50] = No feces, sugar 100 mmol/L + phenylboronic acid 15 mmol/L, 0 days (Table 7)
[51] = No feces, sugar 100 mmol/L + phenylboronic acid 15 mmol/L, 7 days
[52] = No feces, sugar 100 mmol/L + phenylboronic acid 15 mmol/L, 7 days (Table 7)
[53] = No feces, sugar 100 mmol/L + phenylboronic acid 15 mmol/L, 14 days
[54] = No feces, sugar 100 mmol/L + phenylboronic acid 15 mmol/L, 14 days (Table 7)
[55] = No feces, sugar 100 mmol/L + phenylboronic acid 50 mmol/L, 0 days
[56] = No feces, sugar 100 mmol/L + phenylboronic acid 50 mmol/L, 7 days
[57] = No feces, sugar 100 mmol/L + phenylboronic acid 50 mmol/L, 14 days
[58] = No feces, sugar 100 mmol/L, no phenylboronic acid, 0 days
[59] = No feces, sugar 100 mmol/L, no phenylboronic acid, 7 days
[60] = No feces, sugar 100 mmol/L, no phenylboronic acid, 14 days

Structure (SMILES): OC[C@@H](O)[C@@H](O)[C@H](O)[C@H](O)CO [Mannitol, mannitol]
- Hb concentration [1]: 288 µg/L
- Recovery ratio with respect to Hb concentration after 0 days [1]: 100%
- Hb concentration [2]: 278 µg/L
- Recovery ratio with respect to Hb concentration after 0 days [2]: 96%
- Hb concentration [3]: 270 µg/L
- Recovery ratio with respect to Hb concentration after 0 days [3]: 94%
- Hb concentration [4]: 281 µg/L
- Recovery ratio with respect to Hb concentration after 0 days [4]: 100%
- Hb concentration [5]: 301 µg/L
- Recovery ratio with respect to Hb after 0 days [5]: 100%
- Hb concentration [6]: 279 µg/L
- Recovery ratio with respect to Hb concentration after 0 days [6]: 99%
- Hb concentration [7]: 288 µg/L
- Recovery ratio with respect to Hb after 0 days [7]: 96%
- Hb concentration [8]: 276 µg/L
- Recovery ratio with respect to Hb concentration after 0 days [8]: 98%
- Hb concentration [9]: 287 µg/L
- Recovery ratio with respect to Hb after 0 days [9]: 95%
- Hb concentration [10]: 270 µg/L
- Recovery ratio with respect to Hb after 0 days [10]: 100%
- Hb concentration [11]: 257 µg/L
- Recovery ratio with respect to Hb after 0 days [11]: 95%
- Hb concentration [12]: 255 µg/L
- Recovery ratio with respect to Hb after 0 days [12]: 95%
- Hb concentration [13]: 276 µg/L
- Recovery ratio with respect to Hb concentration after 0 days [13]: 100%
- Hb concentration [14]: 156 µg/L
- Recovery ratio with respect to Hb concentration after 0 days [14]: 57%
- Hb concentration [15]: 130 µg/L
- Recovery ratio with respect to Hb concentration after 0 days [15]: 47%
- Hb concentration [16]: 296 µg/L
- Recovery ratio with respect to Hb concentration after 0 days [16]: 100%
- Hb concentration [17]: 291 µg/L
- Recovery ratio with respect to Hb concentration after 0 days [17]: 98%
- Hb concentration [18]: 280 µg/L
- Recovery ratio with respect to Hb concentration after 0 days [18]: 95%
- Hb concentration [19]: 290 µg/L
- Recovery ratio with respect to Hb concentration after 0 days [19]: 100%
- Hb concentration [20]: 298 µg/L
- Recovery ratio with respect to Hb after 0 days [20]: 100%
- Hb concentration [21]: 290 µg/L
- Recovery ratio with respect to Hb concentration after 0 days [21]: 100%
- Hb concentration [22]: 284 µg/L
- Recovery ratio with respect to Hb after 0 days [22]: 95%
- Hb concentration [23]: 286 µg/L
- Recovery ratio with respect to Hb concentration after 0 days [23]: 99%
- Hb concentration [24]: 284 µg/L
- Recovery ratio with respect to Hb after 0 days [24]: 95%
- Hb concentration [25]: 268 µg/L
- Recovery ratio with respect to Hb after 0 days [25]: 100%
- Hb concentration [26]: 263 µg/L
- Recovery ratio with respect to Hb after 0 days [26]: 98%
- Hb concentration [27]: 274 µg/L
- Recovery ratio with respect to Hb after 0 days [27]: 102%
- Hb concentration [28]: 284 µg/L
- Recovery ratio with respect to Hb concentration after 0 days [28]: 100%
- Hb concentration [29]: 97 µg/L
- Recovery ratio with respect to Hb concentration after 0 days [29]: 34%
- Hb concentration [30]: 81 µg/L
- Recovery ratio with respect to Hb concentration after 0 days [30]: 28%
- Hb concentration [31]: 293 µg/L
- Recovery ratio with respect to Hb concentration after 0 days [31]: 100%
- Hb concentration [32]: 247 µg/L
- Recovery ratio with respect to Hb concentration after 0 days [32]: 84%
- Hb concentration [33]: 238 µg/L
- Recovery ratio with respect to Hb concentration after 0 days [33]: 81%
- Hb concentration [34]: 286 µg/L
- Recovery ratio with respect to Hb concentration after 0 days [34]: 100%
- Hb concentration [35]: 288 µg/L
- Recovery ratio with respect to Hb after 0 days [35]: 100%
- Hb concentration [36]: 243 µg/L
- Recovery ratio with respect to Hb concentration after 0 days [36]: 85%
- Hb concentration [37]: 231 µg/L
- Recovery ratio with respect to Hb after 0 days [37]: 80%
- Hb concentration [38]: 240 µg/L
- Recovery ratio with respect to Hb concentration after 0 days [38]: 84%
- Hb concentration [39]: 220 µg/L
- Recovery ratio with respect to Hb after 0 days [39]: 76%
- Hb concentration [40]: 254 µg/L
- Recovery ratio with respect to Hb after 0 days [40]: 100%
- Hb concentration [41]: 233 µg/L
- Recovery ratio with respect to Hb after 0 days [41]: 92%
- Hb concentration [42]: 226 µg/L
- Recovery ratio with respect to Hb after 0 days [42]: 89%
- Hb concentration [43]: 282 µg/L
- Recovery ratio with respect to Hb concentration after 0 days [43]: 100%
- Hb concentration [44]: 93 µg/L
- Recovery ratio with respect to Hb concentration after 0 days [44]: 33%
- Hb concentration [45]: 78 µg/L
- Recovery ratio with respect to Hb concentration after 0 days [45]: 28%
- Hb concentration [46]: 270 µg/L
- Recovery ratio with respect to Hb concentration after 0 days [46]: 100%
- Hb concentration [47]: 263 µg/L
- Recovery ratio with respect to Hb concentration after 0 days [47]: 98%
- Hb concentration [48]: 254 µg/L
- Recovery ratio with respect to Hb concentration after 0 days [48]: 94%
- Hb concentration [49]: 269 µg/L
- Recovery ratio with respect to Hb concentration after 0 days [49]: 100%
- Hb concentration [50]: 287 µg/L
- Recovery ratio with respect to Hb after 0 days [50]: 100%
- Hb concentration [51]: 260 µg/L
- Recovery ratio with respect to Hb concentration after 0 days [51]: 97%
- Hb concentration [52]: 272 µg/L
- Recovery ratio with respect to Hb after 0 days [52]: 95%
- Hb concentration [53]: 252 µg/L
- Recovery ratio with respect to Hb concentration after 0 days [53]: 94%
- Hb concentration [54]: 269 µg/L
- Recovery ratio with respect to Hb after 0 days [54]: 94%
- Hb concentration [55]: 254 µg/L
- Recovery ratio with respect to Hb after 0 days [55]: 100%
- Hb concentration [56]: 242 µg/L
- Recovery ratio with respect to Hb after 0 days [56]: 95%
- Hb concentration [57]: 241 µg/L
- Recovery ratio with respect to Hb after 0 days [57]: 95%
- Hb concentration [58]: 261 µg/L
- Recovery ratio with respect to Hb concentration after 0 days [58]: 100%
- Hb concentration [59]: 251 µg/L
- Recovery ratio with respect to Hb concentration after 0 days [59]: 96%
- Hb concentration [60]: 244 µg/L
- Recovery ratio with respect to Hb concentration after 0 days [60]: 93%
- recovery ratio of hemoglobin in the sample (sugar 100 mmol/L further added to other arylboronic acids (3-CPBA, 3-HPBA, 3-APBA) 15 mmol/L): further improved
- recovery ratio of hemoglobin in the sample (sugar 50 or 100 mmol/L further added to phenylboronic acid 15 mmol/L): remarkably improved
